Three substances from US6028188A (priority 1994, dated 2000) can be followed below.

[mp] = methylphosphonate linkage

Data set [1] relates to complementary RNA targets. The data set is described as follows: Tm with complementary RNA target, oligomers 5'-TAG-CTT-CCT-TAG-CTC-CTG-3'. The format is binding. To be noted: Table XI. As for the experimental part:
(§1) Annealing reaction mixtures contained equimolar amounts of Oligomer and RNA target Oligomer (2.4 μM total strand concentration), 20 mM potassium phosphate (pH 7.2), 100 mM sodium chloride, 0.1 mM EDTA and 0.03% potassium sarkosylate. The reaction mixtures were heated to 80° C. and then slowly cooled to 4° C. over about 4 to 6 hours. The annealed samples were then transferred to 1 cm quartz cuvettes and Tm was monitored by absorbance at 260 nm as a function of temperature using a Varian Cary Model 2E Spectrophotometer containing a temperature controlled 6×6 sample holder which interfaced with an IBM compatible PC computer. The temperature was varied from 5° C. to 80° C. at a ramp rate of 1° C./minute. The Tm for each melt profile is determined as the point corresponding to the maximum of the first derivative of the curve corresponding to absorbance versus temperature.
The oligomers were synthesized according to methods set forth in the Examples herein and had mixed oligonucleoside sequences complementary to biologically relevant mRNA targets. Tm determinations were done according to the methods described in the proceeding Examples.

A further data set concerns splice acceptor site. The data set is described as follows: Tm of splice acceptor site oligomers. The following applies: Table XIII. The format is binding. As to the method: as §1
The results are given as percent gene expression relative to no-oligomer treatment of cells. The concentration is given above the data columns in micromolar. CAT levels were determined in triplicate as previously given and the experiment has been repeated multiple times. The Tm of the oligomers was determined as previously given.

In another data set the test system is pGL2 (luciferase). The format is cell-based. To be noted: for percent gene expression relative to no-oligomer treatment, pGL2 (splicing, no match): 1.0 μM; for inhibition of luciferase expression (in words): pGL2. As for the experimental part:
All cultures were maintained at 37° C.
This assay was performed generally as follows according to standard procedures. 20 μl of lysate was combined with 100 μl of luciferase assay reagent (Promega) and counted in a scintillation counter (Packard) within 20 seconds (as recommended by Promega).
In order to determine that the effect against pG1035 was not due to non-specific interference of splicing in general, pGL2 was used as an additional control. pGL2 encodes the luciferase gene and contains an intron that is unrelated to the intron in pG1035.

The subject of another data set is pG1036 (wild-type CAT). Description: CAT expression, non-splicing reporter pG1036, in COS-7 cells. The following applies: for inhibition of expression of non-splicing CAT gene (in words): pG1036.
The test system of the next data set is pG1035 (SplicerCAT). The data set is described as follows: Inhibition of CAT expression, splicing reporter pG1035, in COS-7 cells. The following applies: for reduction of CAT expression: pG1035, 1.0 micromolar.

On to “1630-1: 5'-TAG-CTT-CCT-TAG-CTC-CTG-3' [SEQ. ID. NO. 5], Racemic MP (DNA TAGCTTCCTTAGCTCCTG; all [mp], sugars by position and methylation of C not given here) [Oligomer 1630-1]”, for which the “Tm(° C. RNA)” value in data set [1] worked out at 39.0 °C.

Consider “3373-1A: 24 mer, 2'-O-Me (MP(Rp)/DE), 5'-ccc tga gag aga gag aga ggt tcg [SEQ. ID. NO. 12] (CCCTGAGAGAGAGAGAGAGGTTCG; all 2'-O-methyl, backbone, methylation of C and T or U not given here; Rp methylphosphonate and diester linkages) [Oligomer 3373-1A]”, for which the Tm with splice acceptor site is 84 °C. In addition, in the data set with pGL2 (luciferase), the “percent gene expression relative to no-oligomer treatment, pGL2 (splicing, no match)” value is 127%. Moreover, the “inhibition of luciferase expression (in words)” value with pGL2 (luciferase) is “not inhibited in any way”. In addition, the “percent gene expression relative to no-oligomer treatment, pG1036 (non-splicing)” value with pG1036 (wild-type CAT) (0.1 μM) came out at 91%; in the data set with pG1036 (wild-type CAT) (0.3 μM), 89%; with pG1036 (wild-type CAT) (1.0 μM), 105%. For the same substance, in the data set with pG1036 (wild-type CAT), the “inhibition of expression of non-splicing CAT gene (in words)” value is on record as “Neither oligomer inhibited the expression of the non-splicing CAT gene, pG1036, significantly”. Moreover, the “percent gene expression relative to no-oligomer treatment, pG1035 (splicing)” value in the data set on pG1035 (SplicerCAT) (0.1 μM) was found to be 81%; in the data set with pG1035 (SplicerCAT) (0.3 μM) it was 48%; in the data set on pG1035 (SplicerCAT) (head printed 0.1) it was 26%. Besides, the “reduction of CAT expression” value in the data set on pG1035 (SplicerCAT) is on record as 74%.

As to “3373-1B: 18 mer 2'-O-Me (MP(Rp)/DE), 5'-gag aga gag aga ggt tcg-3' [SEQ. ID. NO. 13] (GAGAGAGAGAGAGGTTCG; all 2'-O-methyl, backbone, methylation of C and T or U not given here; Rp methylphosphonate and diester linkages) [Oligomer 3373-1B]”, in the data set on splice acceptor site, the Tm stood at 80 °C. Besides, the “percent gene expression relative to no-oligomer treatment, pGL2 (splicing, no match)” value with pGL2 (luciferase) is reported as 127%. For the same substance, the “inhibition of luciferase expression (in words)” value with pGL2 (luciferase) is listed as “not inhibited in any way”. Besides, the “percent gene expression relative to no-oligomer treatment, pG1036 (non-splicing)” value in the data set on pG1036 (wild-type CAT) (0.1 μM) was 95%; with pG1036 (wild-type CAT) (0.3 μM), 85%; in the data set with pG1036 (wild-type CAT) (1.0 μM), 81%. The “inhibition of expression of non-splicing CAT gene (in words)” value in the data set with pG1036 (wild-type CAT) is on record as “Neither oligomer inhibited the expression of the non-splicing CAT gene, pG1036, significantly”. The “percent gene expression relative to no-oligomer treatment, pG1035 (splicing)” value in the data set with pG1035 (SplicerCAT) (0.1 μM) stood at 59%; in the data set on pG1035 (SplicerCAT) (0.3 μM), 31%; in the data set with pG1035 (SplicerCAT) (head printed 0.1), 10%. The “reduction of CAT expression” value in the data set on pG1035 (SplicerCAT) turned out to be 90%.
